Test results published in publication PMC10139033, “Identification of Potential p38γ Inhibitors via In Silico Screening, In Vitro Bioassay and Molecular Dynamics Simulation Studies” (International Journal of Molecular Sciences, 2023).
Read-outs that look alike come from different tables or passages of the source.

Legend:
p38γ [1] = target: T1, p38γ (Homo sapiens, UniProt P53778); test: p38γ kinase enzyme system with ADP-Glo kinase assay; assay type: biochemical
T1 construct: purchased Promega
T1 sequence (P53778 1-367): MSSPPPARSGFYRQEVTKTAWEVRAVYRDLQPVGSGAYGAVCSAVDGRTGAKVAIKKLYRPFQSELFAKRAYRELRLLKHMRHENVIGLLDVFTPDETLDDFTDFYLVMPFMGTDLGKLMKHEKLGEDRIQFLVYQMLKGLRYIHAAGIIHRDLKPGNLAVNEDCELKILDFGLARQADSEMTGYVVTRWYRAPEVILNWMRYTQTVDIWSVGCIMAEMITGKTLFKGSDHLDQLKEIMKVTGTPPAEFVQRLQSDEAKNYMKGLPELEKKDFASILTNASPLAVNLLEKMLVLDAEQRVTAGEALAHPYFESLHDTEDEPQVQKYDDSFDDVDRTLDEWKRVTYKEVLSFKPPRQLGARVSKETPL
Experimental: The inhibitory assay of p38γ was performed using the p38γ kinase enzyme system (Promega, Madison, WI, USA) with the ADP-Glo™ kinase assay kit (Promega, Madison, WI, USA). The kinase reactions were conducted in a total assay volume of 5 μL in a white 384-well plate. The kinase reaction mixture per well was composed using the reaction buffer supplemented with 50μM DTT and contained 50 ng p38γ, 1μg p38 substrate, 50 μM ATP, and the tested compound at the specified concentrations. Positive control wells receive 5% DMSO instead of 1 μL of the compound solution, and negative control wells are without both compound and enzyme in the reaction. After incubation of the plates at room temperature for 60 min, the reaction was stopped with 5 μL of ADP-Glo™ reagent for 40 min. Next, 10 µL of kinase detection reagent was added and incubated for another 30 min to convert the ADP to ATP. The ATP was then detected by measuring the luminescence using a Victor Nivo multimode microplate reader (PerkinElmer, Waltham, MA, USA) in an integration time of 1 s per well. The relative kinase activity was calculated as follows: p38γ kinase activity %=Lumenescence of compound−luminescence of negative control /Lumenescence of positive control−luminescence of negative control ×100%
(§1) All data were collected from triplicate experiments and presented as the mean ± standard deviation of the mean. Data were analyzed using Graph Prism v9.0.0.121. One sample t test was used to calculate the statistical significance of the differences. p < 0.05 was considered statistically significant. The four-parameter dose-response curves and IC50 values were determined by a non-linear regression curve fitting method.

Huh7 cells = test: CCK-8 cytotoxicity assay, Huh7; assay type: cell-based, human
Experimental: (§2) The compounds were tested for HCC cell lines using the Cell Counting Kit-8 (CCK-8) (Absin, Shanghai, China). The human HCC cell lines Huh7 and HepG2 were cultured in high-glucose Dulbecco’s modified Eagle’s medium (DMEM) supplemented with 10% fetal bovine serum (FBS), 1% penicillin, and 1% penicillin/streptomycin at 37 °C with 5% CO2. Huh7 and HepG2 cells were seeded into white 96-well plates at 3 × 10^3 cells per well in 100 μL suspension and pre-incubated overnight. The cells were then treated with different compound concentrations and incubated for 48 h. Control wells just contained cell suspension, while blank wells were added with complete media. The effects on proliferation were determined by the addition of 10 µL CCK-8 reagent, followed by incubation for 1 h. Finally, the absorbance of the reaction was measured at 450 nm using a Victor Nivo Multimode Microplate Reader. Cell viability was calculated as follows: Cell viability%= experimental well absorbance−blank well absorbance /control well absorbance−blank well absorbance ×100%
as §1

HepG2 cells = test: CCK-8 cytotoxicity assay, HepG2; assay type: cell-based, human
Experimental: as §2, §1

p38γ [2] = target: T1, p38γ; set-up: method as in PMID 29758280; settings: read-out: experimental IC50 on p38γ; cited from earlier work

reduction of p38γ activity (p38γ [1]; 1 μM) [%]	reduction of p38γ activity (p38γ [1]; 10 μM) [%]	reduction of p38γ activity (p38γ [1]; 100 μM) [%]	IC50 (p38γ [1]; 12-point four-fold dilution from 100 μM, 50 μM ATP) [µM]	SMILES	effect on viability of Huh7 cells (Huh7 cells; 1 µM, 48 h)	effect on HCC cell growth (Huh7) (Huh7 cells; 10 and 100 µM, 48 h)	IC50 (Huh7 cells; Homo sapiens, Huh-7, 48 h treatment) [µM]	effect on viability of HepG2 cells (HepG2 cells; 1 µM, 48 h)	effect on HCC cell growth (HepG2) (HepG2 cells; 10 and 100 µM, 48 h)	IC50 (HepG2 cells; Homo sapiens, HepG2, 48 h treatment) [µM]	IC50 (p38γ [2]) [µM]
72.43	93.12	96.18	0.0168	O=C(C1CC(=O)N(C2CCS(=O)(=O)C2)C1)N1CCC(c2c[nH]c3ncccc23)CC1 (centres unmarked) [compound 2, 1-(1,1-dioxothiolan-3-yl)-4-[4-(1H-pyrrolo [2,3-b]pyridin-3-yl)piperidine-1-carbonyl]pyrrolidin-2-one]	no effect	potent inhibitory effects	11.9	no effect	potent inhibitory effects	19.2	–
–	–	–	–	Cc1ccc(=O)n(-c2ccccc2)c1 [pirfenidone]	–	–	–	–	–	–	> 125
